Structures can show the parent of a compound that is named as a salt.
Key:
[1] = biological target: purified human Factor XIa (Homo sapiens (Human), UniProt P03951); assay: biochemical; format: biochemical; conditions: read-out: Factor XIa Ki
[2] = biological target: purified human plasma kallikrein (Homo sapiens (Human), UniProt P03952); assay: biochemical; format: biochemical; conditions: read-out: Plasma Kallikrein Ki
purified human plasma kallikrein, sequence (P03952 whole entry, looked up): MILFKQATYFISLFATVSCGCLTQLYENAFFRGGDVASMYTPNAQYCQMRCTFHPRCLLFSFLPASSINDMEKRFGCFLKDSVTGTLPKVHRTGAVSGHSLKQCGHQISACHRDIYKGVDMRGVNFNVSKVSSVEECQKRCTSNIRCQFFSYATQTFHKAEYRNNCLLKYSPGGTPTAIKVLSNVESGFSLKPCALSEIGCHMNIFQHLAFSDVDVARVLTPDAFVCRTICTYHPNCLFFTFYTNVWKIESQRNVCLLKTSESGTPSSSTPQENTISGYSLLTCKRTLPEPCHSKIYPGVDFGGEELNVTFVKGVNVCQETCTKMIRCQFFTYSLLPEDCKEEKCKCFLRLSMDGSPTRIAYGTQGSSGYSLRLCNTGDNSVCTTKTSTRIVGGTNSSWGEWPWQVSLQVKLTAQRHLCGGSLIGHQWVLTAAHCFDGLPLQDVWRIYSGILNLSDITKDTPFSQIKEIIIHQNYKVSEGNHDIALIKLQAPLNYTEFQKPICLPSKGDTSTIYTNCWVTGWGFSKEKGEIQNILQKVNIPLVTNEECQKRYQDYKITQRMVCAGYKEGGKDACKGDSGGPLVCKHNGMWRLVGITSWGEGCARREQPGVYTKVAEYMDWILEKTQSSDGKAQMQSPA
purified human plasma kallikrein, sequence (P03952 whole entry partner, looked up): as the sequence (P03952 whole entry, looked up) above

purified human Factor XIa, sequence (P03951 whole entry, looked up): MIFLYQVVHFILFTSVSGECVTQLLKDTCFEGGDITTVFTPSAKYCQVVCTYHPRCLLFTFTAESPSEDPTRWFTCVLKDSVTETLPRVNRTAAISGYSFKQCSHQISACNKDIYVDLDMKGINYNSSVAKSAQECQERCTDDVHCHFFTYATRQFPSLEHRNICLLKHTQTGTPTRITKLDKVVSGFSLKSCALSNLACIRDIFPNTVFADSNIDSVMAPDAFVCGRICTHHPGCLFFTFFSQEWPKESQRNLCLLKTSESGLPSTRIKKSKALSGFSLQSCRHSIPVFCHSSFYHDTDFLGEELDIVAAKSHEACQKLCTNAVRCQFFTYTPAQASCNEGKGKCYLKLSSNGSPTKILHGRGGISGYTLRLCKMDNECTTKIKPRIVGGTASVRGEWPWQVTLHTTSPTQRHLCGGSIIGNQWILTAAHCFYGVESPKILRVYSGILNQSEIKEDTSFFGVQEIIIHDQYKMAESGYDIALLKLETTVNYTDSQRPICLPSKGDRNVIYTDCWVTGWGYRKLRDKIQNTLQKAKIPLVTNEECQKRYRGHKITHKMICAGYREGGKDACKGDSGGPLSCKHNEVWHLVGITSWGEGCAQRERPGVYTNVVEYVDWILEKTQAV
purified human Factor XIa, sequence (P03951 whole entry partner, looked up): as the sequence (P03951 whole entry, looked up) above

Row | Structure (SMILES) | Ki [1] | Ki [2]
1 | C[C@@H]1CCC[C@H](N2CCC(c3c(Br)ccc(Cl)c3F)=CC2=O)c2cc(ccn2)-c2c(ccc(F)c2F)NC1=O [Example 204, (10R,14S)-14-[4-(6-bromo-3-chloro-2-fluorophenyl)-6-oxo-1,2,3,6-tetrahydropyridin-1-yl]-3,4-difluoro-10-methyl-8,16-diazatricyclo[13.3.1.0^2,7]nonadeca-1(19),2(7),3,5,15,17-hexaen-9-one, TFA salt] | 4.46 nM | 16 nM
2 | C[C@@H]1CCC[C@H](N2CCC(c3c(F)ccc(Cl)c3F)=CC2=O)c2cc(ccn2)-c2cc(F)c(F)cc2NC1=O [Example 205, (10R,14S)-14-[4-(3-chloro-2,6-difluorophenyl)-6-oxo-1,2,3,6-tetrahydropyridin-1-yl]-4,5-difluoro-10-methyl-8,16-diazatricyclo[13.3.1.0^2,7]nonadeca-1(19),2(7),3,5,15,17-hexaen-9-one, TFA salt] | 69.2 nM | 88.4 nM
3 | C[C@@H]1CCC[C@H](N2CCC(c3c(Br)ccc(Cl)c3F)=CC2=O)c2cc(ccn2)-c2cc(F)c(F)cc2NC1=O [Example 206, (10R,14S)-14-[4-(6-bromo-3-chloro-2-fluorophenyl)-6-oxo-1,2,3,6-tetrahydropyridin-1-yl]-4,5-difluoro-10-methyl-8,16-diazatricyclo[13.3.1.0^2,7]nonadeca-1(19),2(7),3,5,15,17-hexaen-9-one, TFA salt] | 11.8 nM | 27.5 nM
4 | C[C@@H]1CCC[C@H](N2CCC(c3c(C#N)ccc(Cl)c3F)=CC2=O)c2cc(ccn2)-c2c(F)cc(F)cc2NC1=O [Example 207, 4-chloro-2-{1-[(10R,14S)-3,5-difluoro-10-methyl-9-oxo-8,16-diazatricyclo[13.3.1.0^2,7]nonadeca-1(19),2(7),3,5,15,17-hexaen-14-yl]-6-oxo-1,2,3,6-tetrahydropyridin-4-yl}-3-fluorobenzonitrile, TFA salt] | 2.75 nM | 5.8 nM
5 | C[C@@H]1CCC[C@H](N2CCC(c3c(C#N)ccc(Cl)c3F)=CC2=O)c2cc(ccn2)-c2c(ccc(F)c2F)NC1=O [Example 208, 4-chloro-2-{1-[(10R,14S)-3,4-difluoro-10-methyl-9-oxo-8,16-diazatricyclo[13.3.1.0^2,7]nonadeca-1(19),2(7),3,5,15,17-hexaen-14-yl]-6-oxo-1,2,3,6-tetrahydropyridin-4-yl}-3-fluorobenzonitrile, TFA salt] | 1 nM | 3.1 nM
6 | C[C@@H]1CCC[C@H](N2CCC(c3c(C#N)ccc(C#N)c3F)=CC2=O)c2cc(ccn2)-c2c(ccc(F)c2F)NC1=O [Example 209, 2-{1-[(10R,14S)-3,4-difluoro-10-methyl-9-oxo-8,16-diazatricyclo[13.3.1.0^2,7]nonadeca-1(19),2(7),3,5,15,17-hexaen-14-yl]-6-oxo-1,2,3,6-tetrahydropyridin-4-yl}-3-fluorobenzene-1,4-dicarbonitrile, TFA salt] | 120 nM | 457 nM
7 | C[C@@H]1CCC[C@H](N2CCC(c3c(C#N)ccc(C#N)c3F)=CC2=O)c2cc(ccn2)-c2cc(F)c(F)cc2NC1=O [Example 210, 2-{1-[(10R,14S)-4,5-difluoro-10-methyl-9-oxo-8,16-diazatricyclo[13.3.1.0^2,7]nonadeca-1(19),2(7),3,5,15,17-hexaen-14-yl]-6-oxo-1,2,3,6-tetrahydropyridin-4-yl}-3-fluorobenzene-1,4-dicarbonitrile, TFA salt] | 477 nM | 1200 nM
8 | C[C@@H]1CCC[C@H](N2CCC(c3c(C#N)ccc(Cl)c3F)=CC2=O)c2cc(ccn2)-c2cc(F)c(F)cc2NC1=O [Example 211, 4-chloro-2-{1-[(10R,14S)-4,5-difluoro-10-methyl-9-oxo-8,16-diazatricyclo[13.3.1.0^2,7]nonadeca-1(19),2(7),3,5,15,17-hexaen-14-yl]-6-oxo-1,2,3,6-tetrahydropyridin-4-yl}-3-fluorobenzonitrile, TFA salt] | 3.26 nM | 6.46 nM
9 | C[C@@H]1CCC[C@H](n2ccc(-c3cccc(Cl)c3F)cc2=O)c2cc(ccn2)-c2c(F)cc(F)cc2NC1=O [Example 212, (10R,14S)-14-[4-(3-chloro-2-fluorophenyl)-2-oxo-1,2-dihydropyridin-1-yl]-3,5-difluoro-10-methyl-8,16-diazatricyclo[13.3.1.0^2,7]nonadeca-1(19),2(7),3,5,15,17-hexaen-9-one, TFA salt] | 111 nM | 286 nM
10 | COC(=O)c1cccc2c1-c1ccnc(c1)[C@@H](N1CCC(c3c(F)ccc(Cl)c3F)=CC1=O)CCC[C@@H](C)C(=O)N2 [Example 213, Methyl (10R,14S)-14-[4-(3-chloro-2,6-difluorophenyl)-6-oxo-1,2,3,6-tetrahydropyridin-1-yl]-10-methyl-9-oxo-8,16-diazatricyclo[13.3.1.0^2,7]nonadeca-1(19),2(7),3,5,15,17-hexaene-3-carboxylate, TFA salt] | > 413 nM | 3370 nM
11 | C[C@@H]1CCC[C@H](N2CCC(c3c(F)ccc(Cl)c3F)=CC2=O)c2cc(ccn2)-c2c(cccc2C(=O)O)NC1=O [Example 214, (10R,14S)-14-[4-(3-chloro-2,6-difluorophenyl)-6-oxo-1,2,3,6-tetrahydropyridin-1-yl]-10-methyl-9-oxo-8,16-diazatricyclo[13.3.1.0^2,7]nonadeca-1(19),2(7),3,5,15,17-hexaene-3-carboxylic acid, TFA salt] | > 423 nM | > 13000 nM
12 | C[C@@H]1CCC[C@H](N2CCC(c3c(-n4cnnn4)ccc(Cl)c3F)=CC2=O)c2cc(ccn2)-c2cc(F)c(F)cc2NC1=O [Example 215, (10R,14S)-14-{4-[3-chloro-2-fluoro-6-(1H-1,2,3,4-tetrazol-1-yl)phenyl]-6-oxo-1,2,3,6-tetrahydropyridin-1-yl}-4,5-difluoro-10-methyl-8,16-diazatricyclo[13.3.1.0^2,7]nonadeca-1(19),2(7),3,5,15,17-hexaen-9-one, TFA salt] | 0.07 nM | 3.61 nM
13 | COC(=O)Nc1ccc2c(c1)C(=O)NCC/C=C/C[C@H](N1CCC(c3c(F)ccc(Cl)c3F)=CC1=O)c1cc-2ccn1 [Example 216, Methyl N-[(12E,15S)-15-[4-(3-chloro-2,6-difluorophenyl)-6-oxo-1,2,3,6-tetrahydropyridin-1-yl]-8-oxo-9,17-diazatricyclo[14.3.1.0^2,7]icosa-1(20),2(7),3,5,12,16,18-heptaen-5-yl]carbamate, TFA salt] | 264 nM | 212 nM
14 | COC(=O)Nc1ccc2c(c1)NC(=O)CCCCC[C@H](N1CCC(c3c(F)ccc(Cl)c3F)=CC1=O)c1cc-2ccn1 [Example 219, Methyl N-[(15S)-15-[4-(3-chloro-2,6-difluorophenyl)-6-oxo-1,2,3,6-tetrahydropyridin-1-yl]-9-oxo-8,17-diazatricyclo[14.3.1.0^2,7]icosa-1(20),2(7),3,5,16,18-hexaen-5-yl]carbamate, TFA salt] | 6.61 nM | 6.85 nM
15 | Cc1[nH]c2nc1-c1ccccc1NC(=O)[C@H](C)CCC[C@@H]2N1CCC(c2c(F)ccc(Cl)c2F)=CC1=O [Example 220, (10R,14S)-14-[4-(3-chloro-2,6-difluorophenyl)-6-oxo-1,2,3,6-tetrahydropyridin-1-yl]-10,17-dimethyl-8,16,18-triazatricyclo[13.2.1.0^2,7]octadeca-1(17),2,4,6,15(18)-pentaen-9-one, TFA salt] | 21.7 nM | 50.2 nM
